Consider 2 molecules from paper PMC7004409 (PLoS Pathogens, 2020).

Holding throughout (type): biochemical
One assay concerns the target T1, HIV-2 GagΔMA (Human immunodeficiency virus type 2 (ISOLATE ROD), UniProt P04590).
T1 construct: gene gag; Gag lacking MA; SUMO-tag purification
The conditions noted are these: 50 mM Tris pH 8, 100 mM NaCl, GT25 oligo, dialysis, 22 °C.

For another assay, the target named is T2, SIV GagΔMA (Simian immunodeficiency virus (MM251 ISOLATE), UniProt P05893).
T2 construct: gene gag; Gag lacking MA; SUMO-tag purification
Particulars: 50 mM Tris pH 8, 100 mM NaCl, GT25 oligo, dialysis, 22 °C.

The target of a further assay is T3, BIV GagΔMA (Bovine immunodeficiency virus R29, UniProt P19558).
T3 construct: gene gag; Gag lacking MA; SUMO-tag purification
Particulars: 50 mM MES pH 6.5, 100 mM NaCl, GT50 oligo, dilution, 22 °C.

In another assay the target is T4, FIV GagΔMA (Feline immunodeficiency virus (isolate Petaluma), UniProt P16087).
T4 construct: gene gag; Gag lacking MA; SUMO-tag purification
Particulars: 50 mM Bis-Tris propane, 150 mM NaCl, GT50 oligo, dilution, 22 °C.

In assay [1] the target is T5, HIV-1 GagΔMA (GagΔMAΔp1Δp6) (Human immunodeficiency virus type 1 (NEW YORK-5 ISOLATE), UniProt P12493).
T5 construct: gene gag; Gag lacking MA, p1 and p6 (CA-SP1-NC); SUMO-tag purification, E. coli
The conditions noted are these: GT25 oligo, pH 6.

SMILES strings stand for the structures.

In the case of `O=P(O)(O)O[C@H]1[C@H](OP(=O)(O)O)[C@@H](OP(=O)(O)O)[C@H](OP(=O)(O)O)[C@@H](OP(=O)(O)O)[C@H]1OP(=O)(O)O` [IP6], the “VLP number with / without IP6” value at HIV-2 GagΔMA was “in the presence of IP6, spherical VLP assembly consistent with an immature lattice was observed”; at SIV GagΔMA it was “in the presence of IP6, spherical VLP assembly consistent with an immature lattice was observed”; on BIV GagΔMA, “in the presence of IP6, spherical VLP assembly consistent with an immature lattice was observed”; on FIV GagΔMA, “in the presence of IP6, spherical VLP assembly consistent with an immature lattice was observed”.

Take `O=P(O)(O)O[C@@H]1[C@@H](OP(=O)(O)O)[C@H](OP(=O)(O)O)[C@H](O)[C@H](OP(=O)(O)O)[C@H]1OP(=O)(O)O` [IP5]: the “fold increase of round VLPs at 10 μM” value in assay [1] is reported as 1000 fold.
